Structures are written as SMILES.

In series [1] the test system is Phytophthora infestans. Nature of the series: whole plant or invertebrate. To be noted: in Solanum lycopersicum, foliar, read-out: disease control. Format: in vivo.
The test system of series [2] is Phaeosphaeria nodorum (Septoria nodorum). Nature of the series: Phaeosphaeria nodorum (Septoria nodorum) / wheat / leaf disc preventative (glume blotch). The class given is in vivo. Particulars: Parastagonospora nodorum, foliar, wheat leaf segments cv Kanzler, inoculated 2 days after application, assessed 5-7 days after application, read-out: disease control. The protocol: 5. Phaeosphaeria nodorum (Septoria nodorum)/Wheat/Leaf Disc Preventative (Glume Blotch): Wheat leaf segments (cv) Kanzler were placed on agar in a 24-well plate and sprayed with formulated test compound diluted in water at an application rate of 200 ppm. The leaf disks were inoculated with a spore suspension of the fungus 2 days after application. The inoculated test leaf disks were incubated at 20° C. and 75% relative humidity under a light regime of 12/12 h (light/dark) in a climate cabinet and the activity of a compound was assessed as percent disease control compared to untreated when an appropriate level of disease damage appears in untreated check leaf disks (5-7 days after application).

In series [3] the test system is Pythium ultimum. Briefly: Pythium ultimum / liquid culture (seedling damping off). Particulars: Globisporangium ultimum; 200 ppm; potato dextrose broth, 24° C., 2-3 days after application; read-out: disease control (inhibition of growth determined photometrically). The class given is cell-based.
Series [4] deals with Botryotinia fuckeliana (Botrytis cinerea). Briefly: Botryotinia fuckeliana (Botrytis cinerea) / liquid culture (gray mould). The class given is cell-based. Particulars: Vogels broth, 24° C., 3-4 days after application, read-out: disease control (inhibition of growth determined photometrically). The gist of the method:
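Conidia in Vogels broth added to 96-well plates containing test compound in DMSO at 200 ppm. Incubated at 24° C. Growth inhibition read photometrically 3-4 days after application.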

In series [5] the test system is Glomerella lagenarium (Colletotrichum lagenarium). Nature of the series: Glomerella lagenarium (Colletotrichum lagenarium) / liquid culture (anthracnose). Format: cell-based. To be noted: Colletotrichum orbiculare, PDB potato dextrose broth, 24° C., 3-4 days after application, read-out: disease control (inhibition of growth measured photometrically). The method in brief:
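Compound was applied at 200 ppm from DMSO solution, then potato dextrose broth carrying cryostored fungal spores was added. Growth inhibition was measured by photometry after 3-4 days of incubation at 24° C.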

Series [6] relates to Mycosphaerella arachidis (Cercospora arachidicola). Briefly: Mycosphaerella arachidis (Cercospora arachidicola) / liquid culture (early leaf spot). The class given is cell-based. Particulars: PDB potato dextrose broth, 24° C., 4-5 days after application, read-out: disease control (inhibition of growth determined photometrically). The method in brief: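 Test compound, applied at 200 ppm from DMSO solution, was combined with spore-containing potato dextrose broth. Photometric growth inhibition was scored after 4-5 days at 24° C.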

In series [7] the test system is Mycosphaerella graminicola (Septoria tritici). Nature of the series: Mycosphaerella graminicola (Septoria tritici) / liquid culture (Septoria blotch). The class given is cell-based. Particulars: Zymoseptoria tritici, PDB potato dextrose broth, 24° C., 4-5 days after application, read-out: disease control (inhibition of growth determined photometrically). The gist of the method: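 Growth inhibition was read photometrically 4-5 days after application, following incubation at 24° C of fungal conidia in potato dextrose broth over test compound (200 ppm, from DMSO solution) in microtiter plates.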

Series [8] relates to Gaeumannomyces graminis. Nature of the series: Gaeumannomyces graminis / liquid culture (take-all of cereals). The class given is cell-based. Particulars: PDB potato dextrose broth, 24° C., 4-5 days after application, read-out: disease control (inhibition of growth determined photometrically). The method in brief: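 Growth inhibition measured photometrically 4–5 days post-application, following incubation at 24 °C. Test compound, applied from DMSO at 200 ppm, mixed with fungal mycelial fragments in potato dextrose broth.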

Series [9] relates to Monographella nivalis (Microdochium nivale). Briefly: Monographella nivalis (Microdochium nivale) / liquid culture (foot rot cereals). The class given is cell-based. To be noted: PDB potato dextrose broth, 24° C., 4-5 days after application, read-out: disease control (inhibition of growth determined photometrically).
In series [10] the test system is Fusarium culmorum. Briefly: microbe, parasite or virus in culture. To be noted: read-out: disease control (inhibition of growth determined visually). The class given is cell-based.
Series [11] relates to Thanatephorus cucumeris (Rhizoctonia solani). Briefly: Thanatephorus cucumeris (Rhizoctonia solani) / liquid culture (foot rot, damping-off). Format: cell-based. To be noted: PDB potato dextrose broth, 24° C., 3-4 days after application, read-out: disease control (inhibition of growth determined photometrically). The method in brief: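 Photometric growth-inhibition readout taken 3-4 days after application, with cultures incubated at 24 °C. Test compound was applied at 200 ppm from DMSO solution to R. solani mycelial fragments in PDB.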

Series [12] has as its system Sclerotinia sclerotiorum. Nature of the series: Sclerotinia sclerotiorum / liquid culture (cottony rot). Format: cell-based. To be noted: PDB potato dextrose broth, 24° C., 3-4 days after application, read-out: disease control (inhibition of growth determined visually). The protocol: 18. Sclerotinia sclerotiorum/Liquid Culture (Cottony Rot): Mycelia fragments of a newly grown liquid culture of the fungus were directly mixed into nutrient broth (PDB potato dextrose broth). After placing a (DMSO) solution of the test compounds into a microtiter plate (96-well format) the nutrient broth containing the fungal material was added. The test plates were incubated at 24° C. and the inhibition of growth was determined visually 3-4 days after application.

The test system of series [13] is Plasmopara viticola. Briefly: whole plant or invertebrate. The class given is in vivo. Particulars: foliar, read-out: disease control.
Series [14] deals with Magnaporthe grisea (Pyricularia oryzae). Format: in vivo. Particulars: 200 ppm; rice leaf segments cv. Ballila, inoculated 2 days after application, assessed 5-7 days after application.
Series [15] relates to Puccinia recondita f. sp. tritici. Nature of the series: Puccinia recondita f. sp. tritici / wheat / leaf disc curative (brown rust). The class given is in vivo. Particulars: foliar, 192 h, wheat leaf segments, applied one day after inoculation, assessed 8 dpi, read-out: disease control. Here is the method:
4. Puccinia recondita f. sp. tritici/Wheat/Leaf Disc Curative (Brown Rust) Wheat leaf segments are placed on agar in multiwell plates (24-well format). The leaf disks are then inoculated with a spore suspension of the fungus. One day after inoculation the test solution is applied. After appropriate incubation the activity of a compound is assessed 8 dpi (days after inoculation) as curative fungicidal activity. Dose range: 200-22 ppm.

The test system is the same in series [16]. Briefly: Puccinia recondita f. sp. tritici / wheat / leaf disc preventative (brown rust). Format: in vivo. To be noted: foliar, wheat leaf segments cv Kanzler, inoculated 1 day after application, assessed 7-9 days after application, read-out: disease control. An excerpt:
3. Puccinia recondita f. sp. tritici/Wheat/Leaf Disc Preventative (Brown Rust): Wheat leaf segments cultivated variety (cv) Kanzler were placed on agar in 24-well plates and sprayed with formulated test compound diluted in water at an application rate of 200 ppm. The leaf disks were inoculated with a spore suspension of the fungus 1 day after application.

Regarding `O=C(OCC1CC1)c1cc2c(cc1Cl)COB2O` [Compound 202], the pest or weed control at 200 ppm in series [1] and in series [2] was at least 80% in each case. In addition, the inhibition at 200 ppm in series [3], in series [4], in [5], in series [6], in [7] and in [8] was at least 80% each time. In addition, the inhibition at 200 ppm in series [9], in [10], in series [11] and in series [12] was at least 80% throughout.

Turning to `CCC#CCOC(=O)c1ccc2c(c1)B(O)OC2` [Compound 318], the pest or weed control at 200 ppm in [13] and in series [2] was at least 80% throughout. In addition, the inhibition at 200 ppm in series [3], in series [4], in series [6], in series [7], in series [8] and in [9] was at least 80% throughout. Further, the inhibition at 200 ppm in series [10] and in series [11] was at least 80% throughout.

As for `COC(=O)c1cc2c(cc1Cl)COB2O` [Compound 21], the disease control result in series [14] was “at least 80%”.

As for `COC(=O)c1cc2c(cc1C)COB2O` [Compound 446], the melting point – broadly, the temperature of the solid-liquid transition – fell in the range of 136 to 138 °C. Besides, the pest or weed control at 200 ppm in series [2] was at least 80%. Moreover, in series [3], the inhibition (usually the relative decrease from the control value, in per cent) at 200 ppm was at least 80%. Further, the inhibition at 200 ppm in series [5] was at least 80%. Further, the inhibition at 200 ppm in series [6] was at least 80%. Also, in series [7], the inhibition at 200 ppm was at least 80%. Besides, the inhibition at 200 ppm in series [8] is at least 80%. For the same molecule, the inhibition at 200 ppm in [9] is at least 80%. The inhibition at 200 ppm in series [10] was at least 80%. In addition, the inhibition at 200 ppm in series [11] is at least 80%. For the same molecule, the inhibition at 200 ppm in series [12] was at least 80%.

In the case of `O=C(OCC1CCC1)c1ccc2c(c1)B(O)OC2` [Compound 351], the pest or weed control at 200 ppm in [13], in [15] and in [2] was at least 80% in each case. Moreover, the inhibition at 200 ppm in [3], in series [5], in [6], in [7], in series [8] and in series [9] was at least 80% in each case. For the same molecule, the inhibition at 200 ppm in [10] and in [11] was at least 80% in each case.

Consider `O=C(OCCF)c1cc2c(cc1Cl)COB2O` [Compound 233], for which the pest or weed control at 200 ppm in [15] and in series [2] was at least 80% in each case. Besides, the inhibition at 200 ppm in series [3], in series [5], in [6], in series [7], in [8] and in series [9] was at least 80% each time. The inhibition at 200 ppm in [10] was at least 80%.

As for `O=C(Nc1ccccc1C(=O)c1ccccc1)c1cc2c(cc1F)COB2O` [Compound 161], the pest or weed control at 200 ppm in series [13], in series [16] and in [2] was at least 80% each time. In addition, the inhibition at 200 ppm in series [3], in [7] and in [9] was at least 80% each time.

For the molecule `C#CCCCOC(=O)c1cc2c(cc1Cl)COB2O` [Compound 208], the pest or weed control at 200 ppm in [1], in series [13] and in series [2] was at least 80% throughout. Also, the inhibition at 200 ppm in series [3], in series [5], in series [7], in [8] and in series [9] was at least 80% in each case.

Values taken from patent publication US20170000133A1, “BENZOXABOROLE FUNGICIDES” (SYNGENTA PARTICIPATIONS AG, priority 2013, published 2017).
